Reference: US11952360B2, “Dibenzothiophene compounds” (Saint Louis University, priority 2019, dated 2024)

Legend:
[1] = UV/visible absorbance spectra in acetonitrile; type: physicochemical; details: for molar absorptivity: 0.01 mM solutions in HPLC grade acetonitrile; for λabs (absorbance maxima): Measured in CAN
Protocol: (§1) All chemicals were obtained from Alfa Aesar, Oakwood Chemical, Ark Pharm, ThermoFisher Scientific, and Sigma-Aldrich. They were used without further purification. Flash chromatography was performed using a Biotage Horizon with silica gel (SiliaFlash P60) purchased from SiliCycle. ^1H and ^13C NMR spectra were gathered on a Bruker DRX-400 in either DMSO-d6 or CDCl3. High-resolution mass spectra were measured using a ThermoScientific Q Exactive Orbitrap equipped with a Nano ESI ionization source. Absorption spectra were recorded using a Shimazdu UV-1800 UV-Vis spectrophotometer using samples contained in 10×10 mm quartz cell at a concentration of 0.01 mM. Fluorescence spectra were gathered on a Shuimazdu RF-5301 PC in a 10×10 mm quartz cuvette.
(§2) The two dyes, upon their successful synthesis and isolation, had their photophysical data gathered beginning with absorbance, which was measured through the visible and ultraviolet region. Absorbance spectra were gathered using 0.01 mM solutions of the respective compound in HPLC grade acetonitrile. The spectra are nearly identical. This was of no surprise as the chromophore is the same on both molecules; however, 9 has a more substantial absorbance than 4 with a respective molar absorptivity of 66,000 M^−1cm^−1 and 51,700 M^−1 cm^−1. The absorbance determination was followed by the fluorescence emission and excitation spectra being gathered using solutions where the absorbance of the respective compound was 0.041 at 250 nm in acetonitrile (FIG. 1). This was done to save material as the same solutions were then used to determine the fluorescent quantum yield. The excitation spectra of 4 and 9 followed the same pattern, though the two were slightly offset from one another when overlaid with respect to the x-axis.

[2] = Fluorescence excitation/emission spectra and fluorescent quantum yield (single point method, naphthalene standard); type: physicochemical; details: for λex (excitation maxima): Measured in CAN; for λem (emission maxima) / φ (fluorescent quantum yield, single point method): Measured in CAN (acetonitrile); for φ (fluorescent quantum yield, single point method): naphthalene standard, absorbance 0.041 at 250 nm
Protocol: as §1, §2
The fluorescent quantum yield was then determined by the single point method with Eq. 1.
Naphthalene was used as the standard where it was also made into a solution with acetonitrile at a concentration which allowed the absorbance to be 0.041 at 250 nm. The fluorescent quantum yields of 4 and 9 were determined to be 0.40 and 0.67, respectively.

HeLa cells [3] = assay: Fluorescence imaging of HeLa cells without co-stain; type: cell-based; details: 5.0 uM dye, approximately 2 hours, no co-stain
Protocol: (§3) All images were captured with a Leica DM 400 B microscope with a DFC3000G camera (Leica Microsystems, Germany) and 63× oil immersion or 40× lenses. HeLa cells were staged according to the aforementioned methods. Leica LASX Core Software (Leica Microsystems, Germany) was used to acquire the images. All images were processed using ImageJ. The Pearson correlation coefficient was calculated using the image of a single cell using an ImageJ plugin called Colocalization Finder by Christophe Laummonerie and Jerome Mutterer of Institut de Biologie Moleculaire des Plantes.
Sterile glass poly-D-lysine coated #1.5 cover slips (NeuVitro), pre-incubated with culture medium, were placed in sterile 6-well plates. A single cell suspension of the HeLa (cervical cancer cell) cell line was prepared at 5×10^4 cells mL^−1 in the appropriate medium. Volumes of 2.0 mL were pipetted into each of the wells containing the coverslips. The 6-well plate was left overnight at 37.0° C. in a 5.0% CO2 incubator. Following the overnight incubation, the plate was aspirated dry and then PBS, containing the drug (at 5.0 uM and 0.10% DMSO) in a volume of 2.0 mL, was gently pipetted onto the cell monolayers attached to the glass cover slips. Cells on the cover slips were exposed to the dye for approximately 2 hours in the incubator at 37.0° C. in a 5.0% CO2. […]

HeLa cells [4] = assay: Fluorescence imaging of HeLa cells with CellMask Orange co-stain (colocalization); type: cell-based; details: for cellular localization: HeLa cells co-stained with CellMask Orange, 10 minutes; for Pearson correlation coefficient with CellMask Orange: HeLa cells, 10 minutes incubation, single cell image, DAPI vs Cy-5 filter sets
Protocol: as §3
To further optimize staining and understand the localization of the dyes in HeLa cells, a co-stain was introduced to the cells with the dyes while also utilizing a shorter incubation time. Sterile glass poly-D-lysine coated #1.5 cover slips (NeuVitro), pre-incubated with culture medium, were placed in sterile 6-well plates. A single cell suspension of the HeLa (cervical cancer cells) cell line was prepared at 5×10^4 cells ml-1 in the appropriate medium. Volumes of 2.0 mL were pipetted into each of the wells containing the coverslips. The 6-well plate was left overnight at 37.0° C. in a 5.0% CO2 incubator. Following the overnight incubation, the plate was aspirated and PBS, containing the CellMask Orange (ThermoFischer Scientific) (at 1000× dilution with 0.10% DMSO) in a volume of 1.8 mL, was gently pipetted onto the cell monolayers attached to the glass cover slips. To the CellMask doped PBS 200 μl of 4 or 9 at 50 μM was added to the respective well. Cells on the cover slips were exposed to the dye for approximately 10 minutes. Cells were washed with PBS and treated with 4.0% paraformaldehyde solution prepared in PBS, incubated for 30 minutes at room temperature for full fixation. Three washes with 1 ml of PBS were completed to ensure excess solution was rinsed away. Glass cover slips were removed and mounted on slides with ProLong Gold Antifade Mountant (ThermoFisher Scientific). The specimen was dried for several minutes and sealed with clear nail polish before visualized under a microscope.
The modest modification came in two parts; the PBS used to replace the media was now doped with a 1000× dilution of CellMask Orange (plasma membrane dye) and the incubation time for the co-stain and dyes was shortened to 10 minutes. These subtle modifications were done to determine if the dyes, 4 and 9, could be used with short incubation periods and to follow the manufacture's staining instructions for CellMask Orange. […] CellMask Orange is a known dye which readily localizes in the plasma membrane. […] The overlap was quantified using a Pearson correlation coefficient calculation with the Colocalization Finder plugin for ImageJ using a single cell image cropped from the images. […]

HeLa cells [5] = assay: Metabolic proliferation (MTS) assay, toxicity in HeLa cells; type: cell-based
Protocol: HeLa cells were cultured in RPMI (ThermoFisher) supplemented with 10% FBS (ThermoFisher) and 1% penicillin-streptomycin (ThermoFisher 10000 U/mL). Cells (5000 cells/well in 100 μL) were plated in a 96-well culture plate (Greiner) and incubated for […]. Fifty microliters of the compound dissolved in complete media (final DMSO concentration 1%) at final concentrations of 100 μM, 10 μM, 1 μM, 100 nM, 10 nM, and 1 nM were added to the appropriate wells. After incubation of the cells at 37° C. in a humidified atmosphere of 5% CO2 for 120 h, the cells were stained and incubated with MTS reagent (Promega) for 2 h to determine cell viability. The absorbance of each well was taken at 490 nm using a multimode plate reader (FlexStation 3, Molecular Devices, San Diego, Calif.). GraphPad Prism was used to analyze data to determine the percent viability. […] Quadruplicate measurements were performed for each compound.
The toxicity of 4 and 9 was determined in HeLa cells. The HeLa cells were treated with concentrations of the respective dye varying between 1 nm and 100 μM for 72 hours.

[6] = 100 μM, 72 hours (FIG. 4: 120 h)
[7] = concentrations needed for standard imaging protocols (range 1 nm to 100 μM), 72 hours

Row | SMILES | log εmax (maximum molar extinction coefficient) [1] [M^−1 cm^−1] | molar absorptivity [1] | λabs (absorbance maxima) [1] [nm] | Stokes Shift [2] [nm] | λex (excitation maxima) [2] [nm] | λem (emission maxima) [2] [nm] | φ (fluorescent quantum yield, single point method) [2] | distribution of emission in the cell (HeLa cells [3]) | cellular localization (HeLa cells [4]) | Pearson correlation coefficient with CellMask Orange (HeLa cells [4]) | toxicity (HeLa cells [5]; [6]) | toxicity (HeLa cells [5]; [7])
1 | O=C(O)CCCc1ccc2c(c1)-c1ccccc1S2(=O)=O [Compound 4, 4-(5,5-dioxidodibenzo[b,d]thiophen-2-yl)butanoic acid] | 3.71 | 51,700 M^−1cm^−1 | 244 | 38 | 244 | 359 | 0.4 | stronger emission from the center of the cell | localize in the plasma membrane | 0.66 | display toxicity | neither dye displayed toxicity
2 | CCCCCCCCc1ccc2c(c1)-c1cc(CCCC(=O)O)ccc1S2(=O)=O [Compound 9, 4-(8-octyl-5,5-dioxidodibenzo[b,d]thiophen-2-yl)butanoic acid] | 3.81 | 66,000 M^−1cm^−1 | 247 | 38 | 248 | 357 | 0.67 | more extranuclear emission | localize in the plasma membrane | 0.81 | display toxicity | neither dye displayed toxicity
